These results are taken from patent US10787432B2, “N-[(pyridyloxy)propanyl]benzamides” (Boehringer Ingelheim International GmbH, priority 2016, dated 2020).

Bounds are passed on as bounds.

For the first data set, the target named is T1, human Orexin 1 receptor (Homo sapiens, UniProt O43613).
T1 construct: stably expressing the full-length human Orexin 1 receptor; expressed in transfected cells; host or cells: CHO-K1 (CHO-K1/hOX1), co-expressing aequorin
T1 sequence (O43613 1-425): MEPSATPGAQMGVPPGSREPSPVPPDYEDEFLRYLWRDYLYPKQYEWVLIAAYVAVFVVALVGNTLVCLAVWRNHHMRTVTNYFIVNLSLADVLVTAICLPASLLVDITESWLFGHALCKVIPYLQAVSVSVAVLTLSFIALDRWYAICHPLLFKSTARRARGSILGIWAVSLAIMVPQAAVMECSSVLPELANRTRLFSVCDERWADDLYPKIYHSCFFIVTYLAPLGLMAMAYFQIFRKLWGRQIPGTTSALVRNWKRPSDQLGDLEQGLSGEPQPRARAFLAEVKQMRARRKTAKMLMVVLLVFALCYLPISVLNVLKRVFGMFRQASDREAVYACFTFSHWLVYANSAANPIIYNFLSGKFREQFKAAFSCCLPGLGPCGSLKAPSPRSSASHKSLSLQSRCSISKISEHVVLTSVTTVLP
In words: Assay A: In vitro testing of OX1R potency: OX1R IP1 (HTRF, CHO-K1/hOX1 cells, Orexin A as agonist). The class given is cell-based. Particulars: OX1R Kb at 0.5 nM Orexin A. Background: In TR-FRET formats the signal depends on donor and acceptor labels being close together.
For `CCN(C(=O)c1ccccc1-c1ccc(=O)n(C)c1)[C@@H](C)COc1ccc(C(F)(F)F)cn1` [Example 96], the “OX2R Kb/OX1R Kb” value was 217.
Consider `CCN(C(=O)c1c(F)cccc1-n1nccn1)[C@@H](C)COc1ncc(C(F)(F)F)cc1F` [Example 56], for which the “OX2R Kb/OX1R Kb” value is listed as 98.
Same read-out and setting: to `CCN(C(=O)c1ccccc1-c1cnc(C)nc1)[C@@H](C)COc1ccc(C(F)(F)F)cn1` [Example 85] belongs 68.
On the same count and under the same terms, to `CCN(C(=O)c1ccccc1-c1ccn(C)c(=O)c1)[C@@H](C)COc1ccc(C(F)(F)F)cn1` [Example 81] belongs 575; to `CCN(C(=O)c1ccccc1-c1ncccn1)[C@@H](C)COc1ccc(Br)cn1` [Example 117], 194; to `CCN(C(=O)c1ccc(F)cc1-c1nnc(C)o1)[C@@H](C)COc1ccc(C(F)(F)F)cn1` [Example 14], 461.
`CCN(C(=O)c1ccccc1-c1ccn(C)n1)[C@@H](C)COc1ccc(C(F)(F)F)cn1` [Example 74]: the “OX2R Kb/OX1R Kb” value amounted to 123.
Same read-out and setting: under `CCN(C(=O)c1cc(F)c(F)cc1-n1nccn1)[C@@H](C)COc1ncc(C(F)(F)F)cc1F` [Example 52] stands 256.
Still for that read-out and setting: under `CCN(C(=O)c1cccc(F)c1-c1nnc(C)o1)[C@@H](C)COc1ncc(C(F)(F)F)cc1F` [Example 61] stands 452.

Still in this data set, the particulars now being: OX1R Kb at 50 nM Orexin A.
As to `CCN(C(=O)c1c(F)cccc1-n1nccn1)[C@@H](C)COc1ncc(C(F)(F)F)cc1F` [Example 56], the “OX2R Kb/OX1R Kb” value is on record as 257.
With `CCN(C(=O)c1ccccc1-c1ncccn1)[C@@H](C)COc1ccc(Br)cn1` [Example 117], the “OX2R Kb/OX1R Kb” value came to 318.
Still for that read-out and setting: under `CCN(C(=O)c1ccccc1-c1ccn(C)n1)[C@@H](C)COc1ccc(C(F)(F)F)cn1` [Example 74] stands 229.

The same data set, now with this note: Orexin A 0.5 nM; read-out: OX1R Kb (Orexin A concentration used).
In the case of `CCN(C(=O)c1ccccc1-c1ccc(=O)n(C)c1)[C@@H](C)COc1ccc(C(F)(F)F)cn1` [Example 96], the Kb worked out at 7.4 nM.
Same read-out and setting: under `CCN(C(=O)c1c(F)cccc1-n1nccn1)[C@@H](C)COc1ncc(C(F)(F)F)cc1F` [Example 56] stands 1.1 nM; under `CCN(C(=O)c1ccccc1-c1cnc(C)nc1)[C@@H](C)COc1ccc(C(F)(F)F)cn1` [Example 85], 8.6 nM; under `CCN(C(=O)c1ccccc1-c1ccn(C)c(=O)c1)[C@@H](C)COc1ccc(C(F)(F)F)cn1` [Example 81], 2.9 nM.
`CCN(C(=O)c1ccccc1-c1ncccn1)[C@@H](C)COc1ccc(Br)cn1` [Example 117]: the Kb was 0.18 nM.
On to `CCN(C(=O)c1ccc(F)cc1-c1nnc(C)o1)[C@@H](C)COc1ccc(C(F)(F)F)cn1` [Example 14], for which the Kb stood at 4.5 nM.
As to `CCN(C(=O)c1ccccc1-c1ccn(C)n1)[C@@H](C)COc1ccc(C(F)(F)F)cn1` [Example 74], the Kb is 0.39 nM.
Consider `CCN(C(=O)c1cc(F)c(F)cc1-n1nccn1)[C@@H](C)COc1ncc(C(F)(F)F)cc1F` [Example 52], for which the Kb was 2.1 nM.
In the case of `CCN(C(=O)c1cccc(F)c1-c1nnc(C)o1)[C@@H](C)COc1ncc(C(F)(F)F)cc1F` [Example 61], the Kb was 3.27 nM.

Staying with this data set, now noted: Orexin A 50 nM; read-out: OX1R Kb (Orexin A concentration used).
As for `CCN(C(=O)c1c(F)cccc1-n1nccn1)[C@@H](C)COc1ncc(C(F)(F)F)cc1F` [Example 56], the Kb was found to be 0.42 nM.
On the same count and under the same terms, to `CCN(C(=O)c1ccccc1-c1ncccn1)[C@@H](C)COc1ccc(Br)cn1` [Example 117] belongs 0.11 nM; to `CCN(C(=O)c1ccccc1-c1ccn(C)n1)[C@@H](C)COc1ccc(C(F)(F)F)cn1` [Example 74], 0.21 nM.

Another data set has as its target T2, human orexin 2 receptor (Homo sapiens, UniProt O43614).
T2 construct: stably expressing the full-length human orexin 2 receptor; expressed in transfected cells; host or cells: CHO-K1 (CHO-K1/hOX2), co-expressing aequorin
T2 sequence (O43614 1-444): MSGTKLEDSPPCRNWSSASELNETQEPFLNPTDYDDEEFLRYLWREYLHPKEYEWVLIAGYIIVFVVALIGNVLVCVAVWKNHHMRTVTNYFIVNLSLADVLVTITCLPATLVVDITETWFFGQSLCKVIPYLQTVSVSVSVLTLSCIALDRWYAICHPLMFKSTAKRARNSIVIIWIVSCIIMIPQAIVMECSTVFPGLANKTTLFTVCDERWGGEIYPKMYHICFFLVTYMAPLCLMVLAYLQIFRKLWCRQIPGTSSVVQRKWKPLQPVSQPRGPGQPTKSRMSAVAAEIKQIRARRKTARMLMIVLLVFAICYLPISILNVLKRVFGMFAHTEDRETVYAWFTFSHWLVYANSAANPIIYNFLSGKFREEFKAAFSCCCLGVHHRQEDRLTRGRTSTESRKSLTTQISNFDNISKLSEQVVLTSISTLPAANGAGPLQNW
In words: Assay B: In vitro testing of OX2R potency: OX2R IP1 (HTRF, CHO-K1/hOX2 cells, Orexin A as agonist). Particulars: Orexin A 0.5 nM. The class given is cell-based. An excerpt: Activation of the orexin receptors expressed in cell lines results in an increase in intracellular IP3 concentration. IP1, a downstream metabolite of IP3, accumulates in cells following receptor activation and is stable in the presence of LiCl. Using Homogeneous Time-Resolved Fluorescence technology with Lumi4-Tb cryptate (commercially available from Cisbio Bioassay.) and a suitable fluorescence plate reader. […] Chem. Genomics 2009, 3, 22-32. This technique is used to characterize pharmacological modification of the orexin receptors.
B. In Vitro Testing of OX2R Potency: OX2R IP1
IP1 measurements are performed in CHO-K1 cells stably expressing the full-length human orexin 2 receptor and the aequorin photoprotein. Cells are cultivated in Ham's nutrient mixture F12 medium with 10% fetal calf serum, in a 37° C., 95% humidity and 5% CO2 incubator. The CHO-K1/hOX2 cell mass is expanded to larger cell numbers. The cells are obtained as frozen cells in cryo-vials and stored until use at −150° C. The viability of the cells after thawing is >90%. In preparation for the assay, 24 hours before the assay, the cells are thawed at 37° C. and immediately diluted with cell culture medium. After centrifugation, the cell pellet is resuspended in medium and then distributed into the assay plates with a density of 5000 cells/25 μL per well. The plates are incubated for one hour at room temperature to reduce edge effects before they are incubated for 24 hours at 37° C./5% CO2. Compounds are prepared by a 8-point serial dilution in DMSO and a final dilution step into assay buffer (HBSS with 20 mM HEPES, 0.1% BSA and 50 mM LiCl, pH 7.4) to ensure a final DMSO concentration of 1% in the assay.
On the day of the assay, cells in the plate are washed twice with 60 μL assay buffer (20 μL buffer remained in the wells after washing), followed by adding 5 μL per well of compounds diluted in assay buffer. After 15 minutes of incubation at room temperature 5 μL per well of Orexin A peptide (final concentration: 0.5 nM) dissolved in assay buffer is added to the assay plate. The assay plate is incubated for 60 minutes at 37° C. Then 5 μL per well of Anti-IP1-Cryptate Tb solution and 5 μL per well of IP1-d2 dilution are added to all well of the plate and the plate is incubated for a further 60 minutes light protected at room temperature. The emission at 615 nm and 665 nm (Excitation wavelength: 320 nm) are measured using an EnVision reader (PerkinElmer). The ratio between the emission at 665 nm and 615 is calculated by the reader.
8-point four parametric non-linear curve fitting and determination of IC50 values and Hill slopes is performed using a regular analysis software e.g. AssayExplorer (Accelrys). In order to establish an agonist concentration independent parameter, Kb values are calculated using the following equation: IC50/((2+(A/EC50)n)^1/n−1) (with A=concentration agonist, EC50=EC50 agonist, n=Hill slope agonist) (see P. Leff, I. G. Dougall, Trends Pharmacol. Sci. 1993, 14(4), 110-112).
Kb values from Assay A (OX1R) and Assay B (OX2R) can then provide a selectivity ratio which is independent of the agonist (Orexin A) concentration.
The molecule `CCN(C(=O)c1ccccc1-c1ccc(=O)n(C)c1)[C@@H](C)COc1ccc(C(F)(F)F)cn1` [Example 96] gave a Kb of 1610 nM.
`CCN(C(=O)c1c(F)cccc1-n1nccn1)[C@@H](C)COc1ncc(C(F)(F)F)cc1F` [Example 56] registered a Kb of 108 nM.
`CCN(C(=O)c1ccccc1-c1cnc(C)nc1)[C@@H](C)COc1ccc(C(F)(F)F)cn1` [Example 85] yielded a Kb of 583 nM.
Molecule `CCN(C(=O)c1ccccc1-c1ccn(C)c(=O)c1)[C@@H](C)COc1ccc(C(F)(F)F)cn1` [Example 81] returned a Kb of 1670 nM.
Still for that read-out and setting: to `CCN(C(=O)c1ccccc1-c1ncccn1)[C@@H](C)COc1ccc(Br)cn1` [Example 117] belongs 35 nM; to `CCN(C(=O)c1ccc(F)cc1-c1nnc(C)o1)[C@@H](C)COc1ccc(C(F)(F)F)cn1` [Example 14], 2070 nM.
Regarding `CCN(C(=O)c1ccccc1-c1ccn(C)n1)[C@@H](C)COc1ccc(C(F)(F)F)cn1` [Example 74], the Kb was 48 nM.
Same read-out and setting: under `CCN(C(=O)c1cc(F)c(F)cc1-n1nccn1)[C@@H](C)COc1ncc(C(F)(F)F)cc1F` [Example 52] stands 538 nM.
`CCN(C(=O)c1cccc(F)c1-c1nnc(C)o1)[C@@H](C)COc1ncc(C(F)(F)F)cc1F` [Example 61] showed a Kb of 1480 nM.

Tested on in the next data set: not listed separately
In words: Assay C: Metabolic stability in human liver microsomes (Human MST). The class given is in vitro ADME. To be noted: pooled human liver microsomes, pH 7.6; human liver microsomes 1 mg/mL, compound 1 μM, 37° C., NADPH; read-out: Human MST t1/2. The procedure:
C. Assessment of Metabolic Stability in Human Liver Microsomes (Human MST)
The metabolic stability of the compounds according to the invention may be investigated as follows:
The metabolic degradation of the test compound is assayed at 37° C. with pooled human liver microsomes. The final incubation volume of 100 μL per time point contains TRIS buffer pH 7.6 at room temperature (0.1 M), MgCl2 (5 mM), microsomal protein (1 mg/mL) and the test compound at a final concentration of 1 μM. Following a short pre-incubation period at 37° C., the reactions are initiated by addition of beta-nicotinamide adenine dinucleotide phosphate, reduced form (NADPH, 1 mM), and terminated by transferring an aliquot into solvent after different time points. After centrifugation (10000 g, 5 min), an aliquot of the supernatant is assayed by LC-MS/MS for the amount of parent compound. The half-life (t1/2) is determined by the slope of the semi-logarithmic plot of the concentration-time profile.
Background: Liver microsomes are vesicles of endoplasmic reticulum, rich in cytochrome P450 enzymes.
Turning to `CCN(C(=O)c1ccccc1-c1ccc(=O)n(C)c1)[C@@H](C)COc1ccc(C(F)(F)F)cn1` [Example 96], the half-life at 1 μM was 34 min.
Still for that read-out and setting: under `CCN(C(=O)c1c(F)cccc1-n1nccn1)[C@@H](C)COc1ncc(C(F)(F)F)cc1F` [Example 56] stands 48 min; under `CCN(C(=O)c1ccccc1-c1cnc(C)nc1)[C@@H](C)COc1ccc(C(F)(F)F)cn1` [Example 85], 17 min; under `CCN(C(=O)c1ccccc1-c1ccn(C)c(=O)c1)[C@@H](C)COc1ccc(C(F)(F)F)cn1` [Example 81], 39 min.
As for `CCN(C(=O)c1ccccc1-c1ncccn1)[C@@H](C)COc1ccc(Br)cn1` [Example 117], the half-life at 1 μM turned out to be 32 min.
Still for that read-out and setting: to `CCN(C(=O)c1ccc(F)cc1-c1nnc(C)o1)[C@@H](C)COc1ccc(C(F)(F)F)cn1` [Example 14] belongs over 130 min; to `CCN(C(=O)c1ccccc1-c1ccn(C)n1)[C@@H](C)COc1ccc(C(F)(F)F)cn1` [Example 74], 14 min; to `CCN(C(=O)c1cc(F)c(F)cc1-n1nccn1)[C@@H](C)COc1ncc(C(F)(F)F)cc1F` [Example 52], 38 min.
On to `CCN(C(=O)c1cccc(F)c1-c1nnc(C)o1)[C@@H](C)COc1ncc(C(F)(F)F)cc1F` [Example 61], for which the half-life at 1 μM came out at 26 min.
